This note sets out measurements from US12545654B2 (STEMSYNERGY THERAPEUTICS, INC., priority 2020, dated 2026).

This test has as its system N-myc protein. Briefly: In-cell immunostaining assay for decrease of N-myc protein level in neuroblastoma cells. It is filed as cell-based. The following applies: human neuroblastoma cell lines (Kelly, IMR32, SK-N-BE(2)); treated overnight or up to 3 days; N-myc signal normalized over total protein; read-out: Activity (EC50 for decreasing N-myc protein level). The protocol: Human neuroblastoma cell lines were obtained from either Millipore Sigma, St. Louis, MO (Kelly cells) or American Type Culture Collection, Manassas, VA (IMR32 and SK-N-BE(2) cells). Cells were cultured in RPMI1640 medium (Corning, New York, NY), supplemented with 10% fetal bovine serum, 100 unit/mL penicillin and 100 μg/mL streptomycin (Corning, New York, NY) at 37 degree Celsius with 5% CO2 in air atmosphere. Cells cultured in flat clear bottom, black 96-well plates (Corning, New York, NY) were treated with different concentrations of a compound of the invention, which was dissolved in the culture media (200 μL/well), overnight or up to 3 days. Cells were fixed with 4% paraformaldehyde (in Phosphate-Buffered Saline or PBS, 100 μL/well) for 30 minutes at room temperature. Cells were briefly washed three times with PBS afterwards, and then treated with PBS containing 0.1% Triton X-100 (100 μL/well) for 30 minutes at room temperature. For […], cells were further treated with PBS containing 0.01% IRDye 700DX NHS Ester (LI-COR Biosciences, Lincoln, NE. 100 μL/well) for 30 minutes at room temperature. Cells were again washed three times with PBS, and then treated with a Tris-buffered saline solution with 0.1% Tween 20 (TBST) and 5% non-fat milk (50 μL/well) for 1 hour at room temperature. Cells were then treated with TBST with 5% non-fat milk (50 μL/well) containing a mouse anti N-Myc antibody (Clone B8.4.B, 1:500 dilution, Santa Cruz Biotechnology, Santa Cruz, CA), or a combination of a rabbit anti-Histone H3 (phospho S10) antibody (Clone EPR17246, 1:10000 dilution, abcam, Cambridge, MA) and a mouse anti-Histone H3 antibody (Clone 1G1, 1:250 dilution, Santa Cruz Biotechnology, Santa Cruz, CA) overnight at 4 degree Celsius in the dark. Cells were washed three times with TBST, and then treated with TBST with 5% non-fat milk (50 μL/well) containing an IRDye 800CW donkey anti-mouse IgG antibody (1:1000 dilution, LI-COR Biosciences, Lincoln, NE) for N-myc staining, or IRDye® 800CW donkey anti-rabbit IgG and IRDye 680RD donkey anti-mouse IgG antibodies (1:1000 dilution, LI-COR Biosciences, Lincoln, NE) for Histone H3 (phospho S10) and Histone H3 staining, incubated for 1 hour at room temperature in the dark. Cells were then washed four times with TBST and the plate was scanned using an Odyssey 9120 Imaging System (LI-COR Biosciences, Lincoln, NE). Signals for N-myc, total protein, Histone H3 (phospho S10), and Histone H3 were obtained from the images using the ImageStudio software (Version 4.0.21, LI-COR Biosciences, Lincoln, NE). Normalized signals for N-myc (over total protein), and Histone H3 (phospho S10) (over Histone H3) were plotted in Prism 7 software (GraphPad Software, San Diego, CA). A four-parameter dose-response curve was fitted using a variable slope model and the EC50 was calculated in Prism 7 software (GraphPad Software, San Diego, CA).

Usually EC50 stands for the concentration giving half of the maximal effect. For `Cc1nc(NC(=O)C2(C(=O)Nc3cccc(C(F)(F)F)c3)CC2)sc1C(=O)Nc1cc(C(F)(F)F)ccc1Cl` [SSTA-0168, N-(5-((2-chloro-5-(trifluoromethyl)phenyl)carbamoyl)-4-methylthiazol-2-yl)-N-(3-(trifluoromethyl)phenyl)cyclopropane-1,1-dicarboxamide], the EC50 was over 1000 nM.

Regarding `O=C(Nc1cc(C(F)(F)F)ccc1Cl)c1sc(NC(=O)C2(C(=O)Nc3ccc(F)cc3)CC2)nc1C1CC1` [SSTA-0218, N-(5-((2-chloro-5-(trifluoromethyl)phenyl)carbamoyl)-4-cyclopropylthiazol-2-yl)-N-(4-fluorophenyl)cyclopropane-1,1-dicarboxamide], the EC50 is 250 to 1000 nM.

For `O=C(Nc1cc(C(F)(F)F)ccc1Cl)c1sc(NC(=O)C2(C(=O)Nc3ccc(F)cc3)CC2)nc1C(F)(F)F` [SSTA-0217, N-(5-((2-chloro-5-(trifluoromethyl)phenyl)carbamoyl)-4-(trifluoromethyl)thiazol-2-yl)-N-(4-fluorophenyl)cyclopropane-1,1-dicarboxamide], the EC50 fell in the range of 250 to 1000 nM.

`Cc1nc(NC(=O)C2(C(=O)Nc3ccc(F)cc3F)CC2)sc1C(=O)Nc1cc(C(F)(F)F)ccc1Cl` [SSTA-0248, N-(5-((2-chloro-5-(trifluoromethyl)phenyl)carbamoyl)-4-methylthiazol-2-yl)-N-(2,4-difluorophenyl)cyclopropane-1,1-dicarboxamide]: the EC50 is over 1000 nM.

In the case of `Cc1nc(NC(=O)C2(C(=O)Nc3ccc(F)c(F)c3)CC2)sc1C(=O)Nc1cc(C(F)(F)F)ccc1Cl` [SSTA-0238, N-(5-((2-chloro-5-(trifluoromethyl)phenyl)carbamoyl)-4-methylthiazol-2-yl)-N-(3,4-difluorophenyl)cyclopropane-1,1-dicarboxamide], the EC50 fell in the range of 250 to 1000 nM.

`COCc1nc(NC(=O)C2(C(=O)Nc3ccc(Cl)c(F)c3)CC2)sc1C(=O)Nc1cc(C(F)(F)F)ccc1Cl` [SSTA-0262, N-(4-chloro-3-fluorophenyl)-N-(5-((2-chloro-5-(trifluoromethyl)phenyl)carbamoyl)-4-(methoxymethyl)thiazol-2-yl)cyclopropane-1,1-dicarboxamide]: the EC50 was in the range of 250 to 1000 nM.

For `Cc1nc(NC(=O)C2(C(=O)Nc3ccc(F)cc3)CC2)sc1C(=O)Nc1cc(C(F)(F)F)ccc1Cl` [SSTA-0152, N-(5-((2-chloro-5-(trifluoromethyl)phenyl)carbamoyl)-4-methylthiazol-2-yl)-N-(4-fluorophenyl)cyclopropane-1,1-dicarboxamide], the EC50 is 250 to 1000 nM.
